In patent publication US20220024945A1, “THERAPEUTIC COMPOUNDS AND COMPOSITIONS, AND METHODS OF USE THEREOF” (Genentech, Inc., priority 2017, published 2022):

How the values were obtained:
[1] = test system: JAK1-dependent STAT6 phosphorylation downstream of IL-13 stimulation, BEAS-2B cells; assay: JAK1 pathway assay in cell lines: P-STAT6 in BEAS-2B cells + IL13; assay type: cell-based; conditions: Homo sapiens, BEAS-2B, 1 h, BEAS-2B human bronchial epithelial cells, 1 hr compound preincubation, read-out: P-STAT6 BEAS2B + IL13 IC50
Experimental: JAK1 Pathway Assay in Cell Lines was Carried Out as Follows:
Inhibitor potency (EC50) was determined in cell-based assays designed to measure JAK1 dependent STAT phosphorylation. As noted above, inhibition of IL-4, IL-13, and IL-9 signaling by blocking the Jak/Stat signaling pathway can alleviate asthmatic symptoms in pre-clinical lung inflammation models (Mathew et al., 2001, J Exp Med 193(9): 1087-1096; Kudlacz et. al., 2008, Eur J. Pharmacol 582(1-3): 154-161).
In one assay approach, TF-1 human erythroleukemia cells obtained from the American Type Culture Collection (ATCC; Manassas, Va.) were used to measure JAK1-dependent STAT6 phosphorylation downstream of IL-13 stimulation. Prior to use in the assays, TF-1 cells were starved of GM-CSF overnight in OptiMEM medium (Life Technologies, Grand Island, N.Y.) supplemented with 0.5% charcoal/dextran stripped fetal bovine serum (FBS), 0.1 mM non-essential amino acids (NEAA), and 1 mM sodium pyruvate. The assays were run in 384-well plates in serum-free OptiMEM medium using 300,000 cells per well. In a second assay approach, BEAS-2B human bronchial epithelial cells obtained from ATCC were plated at 100,000 cells per well of a 96-well plate one day prior to the experiment. The BEAS-2B assay was run in complete growth medium (bronchial epithelial basal medium plus bulletkit; Lonza; Basel, Switzerland).
Test compounds were serially diluted 1:2 in DMSO and then diluted 1:50 in medium just before use. Diluted compounds were added to the cells, for a final DMSO concentration of 0.2%, and incubated for 30 m (for the TF-1 assay) or 1 hr (for the BEAS-2B assay) at 37° C. Then, cells were stimulated with human recombinant cytokine at their respective EC90 concentrations, as previously determined for each individual lot. Cells were stimulated with […] (R&D Systems, Minneapolis, Minn.) for 15 m/at 37° C. The TF-1 cell reactions were stopped by the direct addition of 10× lysis buffer (Cell Signaling Technologies, Danvers, Mass.), whereas the BEAS-2B cell incubations were halted by the removal of medium and addition of 1× lysis buffer. The resultant samples were frozen in the plates at −80° C. Compound mediated inhibition of STAT6 phosphorylation was measured in the cell lysates using MesoScale Discovery (MSD) technology (Gaithersburg, Md.). EC50 values were determined as the concentration of compound required for 50% inhibition of STAT phosphorylation relative to that measured for the DMSO control.

[2] = biological target: isolated recombinant JAK1 kinase domain (Homo sapiens, UniProt P23458); assay: JAK enzyme assay (Caliper LabChip), JAK1 kinase domain; assay type: biochemical; conditions: ATP 25 μM; 1.5 nM JAK1; Morrison tight binding model
Chain of isolated recombinant JAK1 kinase domain (P23458 875-1153 limits assumed): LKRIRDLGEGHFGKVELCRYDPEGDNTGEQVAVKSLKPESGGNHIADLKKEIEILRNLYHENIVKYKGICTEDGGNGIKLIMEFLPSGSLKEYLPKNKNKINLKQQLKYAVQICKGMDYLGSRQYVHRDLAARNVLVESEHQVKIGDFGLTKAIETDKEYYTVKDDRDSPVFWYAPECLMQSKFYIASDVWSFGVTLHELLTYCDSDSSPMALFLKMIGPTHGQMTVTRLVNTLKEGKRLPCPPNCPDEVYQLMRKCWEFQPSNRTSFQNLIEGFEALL

[3] = biological target: isolated recombinant JAK2 kinase domain (Homo sapiens, UniProt O60674); assay: JAK enzyme assay (Caliper LabChip), JAK2 kinase domain; conditions: ATP 25 μM, 0.2 nM JAK2, Morrison tight binding model
Chain of isolated recombinant JAK2 kinase domain (O60674 849-1124 limits assumed): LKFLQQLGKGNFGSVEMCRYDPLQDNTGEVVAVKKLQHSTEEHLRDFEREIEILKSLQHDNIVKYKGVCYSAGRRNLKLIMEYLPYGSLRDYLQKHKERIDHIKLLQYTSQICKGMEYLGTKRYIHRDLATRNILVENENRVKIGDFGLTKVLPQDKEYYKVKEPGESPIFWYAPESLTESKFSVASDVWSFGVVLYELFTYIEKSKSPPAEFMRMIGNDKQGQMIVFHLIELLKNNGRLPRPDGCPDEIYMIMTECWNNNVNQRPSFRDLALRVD
Experimental: JAK Enzyme Assays were Carried Out as Follows:
The activity of the isolated recombinant JAK1 and JAK2 kinase domain was measured by monitoring phosphorylation of a peptide derived from JAK3 ([sequence] fluorescently labeled on the N-terminus with 5-carboxyfluorescein) using the Caliper LabChip® technology (Caliper Life Sciences, Hopkinton, Mass.). […] Reactions were incubated at 22° C. in 384-well polypropylene microtiter plates for 30 minutes and then stopped by addition of 25 μL of an EDTA containing solution (100 mM HEPES buffer (pH 7.2), 0.015% Brij-35, 150 mM EDTA), resulting in a final EDTA concentration of 50 mM. After termination of the kinase reaction, the proportion of phosphorylated product was determined as a fraction of total peptide substrate using the Caliper LabChip® 3000 according to the manufacturer's specifications.

Row | Compound | IC50 [1] [nM] | Ki [2] [nM] | Ki [3] [nM]
1 | CSc1ccc(OC(F)F)c(-c2nn(CC(=O)N3CCC(O)CC3)cc2NC(=O)c2cnn3cccnc23)c1 [Example 23, N-[3-[2-(difluoromethoxy)-5-methylsulfanyl-phenyl]-1-[2-(4-hydroxy-1-piperidyl)-2-oxo-ethyl]pyrazol-4-yl]pyrazolo[1,5-a]pyrimidine-3-carboxamide] | 47 | 0.35 | 0.55
2 | O=C(Nc1cn(C2COC2)nc1-c1cc(SC2COC2)ccc1OC(F)F)c1cnn2cccnc12 [Example 24, N-[3-[2-(difluoromethoxy)-5-(oxetan-3-ylsulfanyl)phenyl]-1-(oxetan-3-yl)pyrazol-4-yl]pyrazolo[1,5-a]pyrimidine-3-carboxamide] | 17 | 0.46 | 0.22
3 | O=C(Nc1cn(CC(=O)N2CC=CCC2)nc1-c1cc(SC2COC2)ccc1OC(F)F)c1cnn2cccnc12 [Example 25, N-[3-[2-(difluoromethoxy)-5-(oxetan-3-ylsulfanyl)phenyl]-1-[2-(3,6-dihydro-2H-pyridin-1-yl)-2-oxo-ethyl]pyrazol-4-yl]pyrazolo[1,5-a]pyrimidine-3-carboxamide] | 14 | 0.28 | 0.59
4 | CN(C)C(=O)Cn1cc(NC(=O)c2cnn3cccnc23)c(-c2cc(SC3COC3)ccc2OC(F)F)n1 [Example 26, N-[3-[2-(difluoromethoxy)-5-(oxetan-3-ylsulfanyl)phenyl]-1-[2-(dimethylamino)-2-oxo-ethyl]pyrazol-4-yl]pyrazolo[1,5-a]pyrimidine-3-carboxamide] | 34 | 0.32 | 0.93
5 | CSc1ccc(OC(F)F)c(-c2nn(CC(N)=O)cc2NC(=O)c2cnn3cccnc23)c1 [Example 27, N-[1-(2-amino-2-oxo-ethyl)-3-[2-(difluoromethoxy)-5-methylsulfanyl-phenyl]pyrazol-4-yl]pyrazolo[1,5-a]pyrimidine-3-carboxamide] | 12 | 0.29 | 0.1
6 | O=C(Nc1cn(CC(=O)N2CCCCC2)nc1-c1cc(SC2COC2)ccc1OC(F)F)c1cnn2cccnc12 [Example 28, N-[3-[2-(difluoromethoxy)-5-(oxetan-3-ylsulfanyl)phenyl]-1-[2-oxo-2-(1-piperidyl)ethyl]pyrazol-4-yl]pyrazolo[1,5-a]pyrimidine-3-carboxamide] | 24 | 0.41 | 0.96
7 | CSc1ccc(OC(F)F)c(-c2nn(CC(=O)N3CCCCC3)cc2NC(=O)c2cnn3cccnc23)c1 [Example 29] | 14 | 0.25 | 0.39
8 | O=C(Nc1c[nH]nc1-c1cc(SC(F)F)ccc1OC(F)F)c1cnn2cccnc12 [Example 30, N-[3-[2-(difluoromethoxy)-5-(difluoromethylsulfanyl)phenyl]-1H-pyrazol-4-yl]pyrazolo[1,5-a]pyrimidine-3-carboxamide] | 5 | 0.16 | 0.09
9 | CNC(=O)Cn1cc(NC(=O)c2cnn3cccnc23)c(-c2cc(SC(F)F)ccc2OC(F)F)n1 [Example 32, N-[3-[2-(difluoromethoxy)-5-(difluoromethylsulfanyl)phenyl]-1-[2-(methylamino)-2-oxo-ethyl]pyrazol-4-yl]pyrazolo[1,5-a]pyrimidine-3-carboxamide] | 14 | 0.35 | 0.51
10 | CN(C)C(=O)Cn1cc(NC(=O)c2cnn3cccnc23)c(-c2cc(SC(F)F)ccc2OC(F)F)n1 [Example 33, N-[3-[2-(difluoromethoxy)-5-(difluoromethylsulfanyl)phenyl]-1-[2-(dimethylamino)-2-oxo-ethyl]pyrazol-4-yl]pyrazolo[1,5-a]pyrimidine-3-carboxamide] | 10 | 0.21 | 0.52
11 | CC(=O)N1CCC(Sc2ccc(OC(F)F)c(-c3n[nH]cc3NC(=O)c3cnn4cccnc34)c2)CC1 [Example 34, N-[3-[5-[(1-acetyl-4-piperidyl)sulfanyl]-2-(difluoromethoxy)phenyl]-1H-pyrazol-4-yl]pyrazolo[1,5-a]pyrimidine-3-carboxamide] | 251 | 1.02 | 0.39
